Test results taken from US5328838A, “Method for identifying and/or isolating genes which code for membrane receptors” (Enichem Partecipazioni S.p.A., priority 1990, dated 1994).

Tested on: human β2-adrenergic receptor, β-galactosidase fusion protein expressed from λβ2 (λgt11) in E. coli Y1089
Settings: 20 pM ICYP; non-radiolabeled agonists at 10^-8, 10^-8 and 10^-4 M; FIG. 3
Procedure: In order to further characterize the specificity of the test by replication on filters, 3 β-adrenergic agonists were tested on [λβ2] cells in bond-competition tests.
The bacterial cells were seeded on slabs of LB-agar of 10 cm of diameter and were grown for 12 hours at 30° C. Circular nitrocellulose filters (of 8.5 cm of diameter), previously drenched in 10 mM IPTG in the case of the expression of [λgt11], [λβ1] and [λβ2] lysogens were then laid above the bacterial colonies; the expression of proteins was induced for 2 hours, at 30° C. for the lysogenic colonies, and at 42° C. for the colonies transformed with pUEX1 and pUEXβ2, before the removal of the filters. The subsequent treatments were carried out at room temperature, with constant rocking. The replications on filter of the bacterial colonies were first incubated for 60 minutes in 10 ml of bond-establishing buffer (90 mM NaCl, 10 mM Tris-HCl pH 7.5) containing 20 mg/ml of bovine serumalbumin, and were then transferred for 90 minutes in 10 ml of bond-establishing buffer containing 20 mg/ml of bovine serumalbumin and 20 pM ICYP (2000 Ci/mmol, Amersham, U.K.). […]

| SMILES | order of power of competition for the bond of ICYP |
| --- | --- |
| CNC[C@H](O)c1ccc(O)c(O)c1 [epinephrine, (-)-epinephrine] | isoprotenerol>epinephrine>norepinephrine |
| NC[C@H](O)c1ccc(O)c(O)c1 [norepinephrine, (-)-norepinephrine] | isoprotenerol>epinephrine>norepinephrine |
